{"source": "patent EP2327766B1", "about": "“Nitrilases” (BASF Enzymes LLC, priority 2001, dated 2003)", "key": {"[1]": {"system": "Nitrilase II, SEQ ID NOS:103, 104, obtained from an environmental sample", "assay": "High throughput nitrilase activity assay, turnover frequency on aryl acetaldehyde cyanohydrins", "type": "biochemical, Unknown (obtained from an environmental sample)", "details": "conditions as in Table 13 (25 mM substrate, 10% MeOH, 37°C, pH 8), except 0.016 mg/mL nitrilase", "source_text": "We next examined the preparation of aryllactic acid derivatives 6 through hydrolysis of the corresponding cyanohydrins 5. Phenyllactic acid and derivatives serve as versatile building blocks for the preparation of numerous biologically active compounds. (Coppola, G.M.; Schuster, H.F. Chiral α-Hydroxy Acids in Enantioselective Synthesis; Wiley-VCH: Weinheim, Germany: 1997.) Upon screening our nitrilase library against the parent cyanohydrin 5a (Ar= phenyl), we found several enzymes that provided 6a with high enantiomeric excess. One enzyme, SEQ ID NOS: 103, 104, was further characterized. […] The highest [drawing 20] enantioselectivity previously reported for biocatalytic conversion of 5 to 6 was 75% ee achieved through a whole cell transformation using a Pseudomonas strain. (Hashimoto, Y.; Kobayashi, E.; Endo, T.; Nishiyama, M.; Horinouchi, S. Biosci. Biotech. Biochem. 1996, 60, 1279.) Table 14. Nitrilase II-catalyzed production of aryllactic acid derivatives and analogues 6a\n(§1) Assay solutions consisted of 0-10% (v/v) MeOH in 0.1 M sodium phosphate buffer solution at pH 7 to 9 and temperatures 37°C or 22°C. Specific activities were measured at 5 min transformation time point, unless otherwise noted, and are expressed in units µmol mg^-1 min^-1. Enantiomeric excess and conversion rates were determined by high throughput HPLC analysis comparing enzyme product concentration to standard curves of racemic acid products. Analytical conditions for the products are tabulated below."}, "[2]": {"system": "nitrilase SEQ ID NOS:385, 386, obtained from an environmental sample", "assay": "Effect of reaction components on nitrilase activity (2-chloromandelonitrile hydrolysis, non-chiral HPLC)", "type": "biochemical, Unknown (obtained from an environmental sample)", "details": "5 mM additive; 25 mM 2-chloromandelonitrile, 0.1 M phosphate buffer pH 8, 37°C", "source_text": "A vital part of an investigation into process optimization of an enzyme involves the determination of the effects of any compounds which could be present in the enzymatic reaction. For SEQ ID NOS:385, 386, these components were established as the starting material and equilibrium product of the cyanohydrin, 2-chlorobenzaldehyde; the product, 2-chloromandelic acid and the contaminant detected in the substrate, 2-chlorobenzoic acid. […] The presence of trace amounts of triethylamine was also found to be tolerable to the enzyme.\nThe effect of the various reaction components on the activity of SEQ ID NOS:385, 386 was assessed by addition of various levels of possible inhibitors to the enzyme reaction. […]\n• (i) Activity: The effect of the process components on the activity of the enzymes was established by addition of the individual components, 2-chlorobenzaldehyde, 2-chlorobenzoic acid or 2-chloromandelic acid, to the enzymatic reaction. […] The samples were analysed by non-chiral HPLC. • (ii) Stability: The stability of the enzymes to process conditions was monitored by incubation of the enzymes in the presence of the reaction components, 2-chlorobenzaldehyde and 2-chloromandelic acid for predetermined time periods, prior to assay of the enzyme activity under standard conditions. […]"}, "[3]": {"system": "nitrilase SEQ ID NOS:385, 386 (nitrilase I), obtained from an environmental sample", "assay": "High throughput nitrilase activity assay, turnover frequency on mandelonitrile derivatives", "type": "biochemical, Unknown (obtained from an environmental sample)", "procedure": "The nitrilase library was screened for activity and enantioselectivity in the hydrolysis of mandelonitrile (3a, Ar = phenyl) to mandelic acid. […] Under standard conditions using 25 mM 3a and 0.12 mg/mL enzyme in 10% MeOH (v/v) 0.1 M phosphate buffer at 37°C and pH 8, (R)-mandelic acid was formed quantitatively within 10 min and with 98% ee. To confirm synthetic utility, the reaction was performed using 1.0 g 3a (50 mM) and 9 mg nitrilase (0.06 mg/mL nitrilase I); after 3 h (R)-mandelic acid was isolated in high yield (0.93 g, 86%) and again with 98% ee. [drawing 19] Table 13. SEQ ID NOS:385, 386-catalyzed production of mandelic acid derivatives and analogues 4a\nas §1, with “Activity assays were conducted using 25 mM (-3 mg/mL) substrate, 0.1 mg/mL nitrilase in 0.25 mL of assay solution. Assay” for “Assay”"}, "[4]": {"system": "nitrilase expressing subclones SEQ ID NOS:101, 102, SEQ ID NOS:187, 188, SEQ ID NOS:29, 30", "assay": "Growth of nitrilase expressing subclones in the presence of HPA nitrile", "type": "cell-based", "procedure": "In preparation for assay automation, nitrilase expressing cells were added into microtiter plate containing M9 0.2% glucose,0.25 mM IPTG media by florescence activated cell sorting (FACS). Three nitrilase expressing subclones, and the empty vector control were evaluated: SEQ ID NOS:101, 102, SEQ ID NOS:187, 188, SEQ ID NOS:29, 30 and the empty vector. […] Thus colony picking is currently being evaluated as an alternative method to add cells into microtiter plates. The evaporative loss from an uncovered 1536-well microtiter plate is approximately 30% per day in the robot incubator (incubator conditions: 37°C at 85% relative humidity (RH)). Incubation in the 95% RH incubator reduced evaporative loss to 1% per day.\nThe ability of the three subclones to grow in the presence of up to 3.5 mM of nitrile was established using HPA nitrile. Growth rates were only slightly retarded (less that 30%). […] Only S was evaluated as the enzymes are S-selective. The reaction plate was read at 10 minute intervals, with 40 minutes showing the best linearity."}, "[5]": {"system": "nitrilase SEQ ID NOS:103, 104", "assay": "Effect of starting material and product on nitrilase activity (phenylacetaldehyde cyanohydrin hydrolysis)", "type": "biochemical, Unknown (obtained from an environmental sample)", "details": "up to levels of 5 mM", "procedure": "The effect of the process components on the activity of the enzymes was established by addition of the individual components to the enzymatic reaction. These components included the starting materials for the nitrile synthesis, aldehyde, cyanide and ammonium, as well as triethylamine, which is added in catalytic amounts to the nitrile synthesis reaction. The concentrations of the reactants were selected with possible process conditions in mind and were adapted to the levels of reactants used in the enzyme assays. In some cases, the solubility of the aldehydes and products was relatively low; in these cases, the highest level of solubility was added to the reactions as the highest level and 10% of this level as the lower value.\nThe enzymatic reactions were carried out under standard conditions, with addition of one or more of the following components: benzaldehyde, phenylglycine, phenylacetaldehyde, phenyllactic acid, 2-chlorobenzaldehyde, 2-chloromandelic acid, 5-hydroxypentanal, (S)-2-amino-6-hydroxy hexanoic acid, 4-methylleucine, KCN, Triethylamine, NH4Cl. Control reactions were performed under standard conditions, with no additive. The samples were analyzed by non-chiral HPLC.\nSEQ ID NOS: 103, 104 was identified as a highly enantioselective nitrilase for the production of (S)- phenyllactic acid. […] The scaled-up enzymatic reaction with an enantiomeric excess (ee) of 95%. […]"}, "[6]": {"details": "25 mM substrate, 0.12 mg/mL enzyme, 10% MeOH (v/v) 0.1 M phosphate buffer, 37°C, pH 8, 5 min timepoint"}, "[7]": {"details": "entries 8-9: pH 9 and 5 mM substrate concentration, otherwise standard conditions"}}, "data": [{"compound": "Cc1cccc(CC(O)C#N)c1", "note": "(stereo not shown) [3-methylphenyl acetaldehyde cyanohydrin]", "values": [{"measurement": "TOF (turnover frequency)", "setting": "[1]", "value": "13 mol product/mol catalyst/sec"}]}, {"compound": "N#CC(O)Cc1ccccc1Br", "note": "(stereo not shown) [2-bromophenyl acetaldehyde cyanohydrin]", "values": [{"measurement": "TOF (turnover frequency)", "setting": "[1]", "value": "76 mol product/mol catalyst/sec"}]}, {"compound": "N#CC(O)Cc1cccs1", "note": "(stereo not shown) [2-thienyl acetaldehyde cyanohydrin]", "values": [{"measurement": "TOF (turnover frequency)", "setting": "[1]", "value": "2.1 mol product/mol catalyst/sec"}]}, {"compound": "O=Cc1ccccc1Cl", "note": "[2-chlorobenzaldehyde]", "values": [{"measurement": "activity lost upon addition to the reaction", "setting": "[2]", "value": "Approximately 70%"}]}, {"compound": "N#CC(O)c1ccccc1Br", "note": "(stereo not shown) [2-bromomandelonitrile]", "values": [{"measurement": "TOF (turnover frequency)", "setting": "[3]; [6]", "value": "5.6 mol product/mol catalyst/sec"}]}, {"compound": "N#CC(O)c1ccc(F)cc1", "note": "(stereo not shown) [4-fluoromandelonitrile]", "values": [{"measurement": "TOF (turnover frequency)", "setting": "[3]; [6]", "value": "11.8 mol product/mol catalyst/sec"}]}, {"compound": "N#CC(O)c1cccc2ccccc12", "note": "(stereo not shown) [1-naphthyl cyanohydrin]", "values": [{"measurement": "TOF (turnover frequency)", "setting": "[3]; [7]", "value": "2.8 mol product/mol catalyst/sec"}]}, {"compound": "Cc1ccccc1CC(O)C#N", "note": "(stereo not shown) [2-methylphenyl acetaldehyde cyanohydrin]", "values": [{"measurement": "TOF (turnover frequency)", "setting": "[1]", "value": "100 mol product/mol catalyst/sec"}]}, {"compound": "N#CC(O)Cc1ccsc1", "note": "(stereo not shown) [3-thienyl acetaldehyde cyanohydrin]", "values": [{"measurement": "TOF (turnover frequency)", "setting": "[1]", "value": "1.4 mol product/mol catalyst/sec"}]}, {"compound": "N#CC(O)Cc1ccccn1", "note": "(stereo not shown) [2-pyridyl acetaldehyde cyanohydrin]", "values": [{"measurement": "TOF (turnover frequency)", "setting": "[1]", "value": "6.6 mol product/mol catalyst/sec"}]}, {"compound": "N#CC(O)c1ccccc1Cl", "note": "(stereo not shown) [2-chloro mandelonitrile]", "values": [{"measurement": "TOF (turnover frequency)", "setting": "[3]; [6]", "value": "1.7 mol product/mol catalyst/sec"}]}, {"compound": "N#CC(O)Cc1cccc(F)c1", "note": "(stereo not shown) [3-tluorophenyl acetaldehyde cyanohydrin]", "values": [{"measurement": "TOF (turnover frequency)", "setting": "[1]", "value": "14 mol product/mol catalyst/sec"}]}, {"compound": "N#CC(O)c1ccccc1", "note": "(stereo not shown) [mandelonitrile]", "values": [{"measurement": "TOF (turnover frequency)", "setting": "[3]; [6]", "value": "28 mol product/mol catalyst/sec"}]}, {"compound": "N#CC(O)c1ccsc1", "note": "(stereo not shown) [3-thienyl cyanohydrin]", "values": [{"measurement": "TOF (turnover frequency)", "setting": "[3]; [6]", "value": "16.8 mol product/mol catalyst/sec"}]}, {"compound": "N#CC(O)c1ccc2ccccc2c1", "note": "(stereo not shown) [2-naphthyl cyanohydrin]", "values": [{"measurement": "TOF (turnover frequency)", "setting": "[3]; [7]", "value": "2.8 mol product/mol catalyst/sec"}]}, {"compound": "N#CC(O)Cc1cccc2ccccc12", "note": "(stereo not shown) [1-napthyl acetaldehyde cyanohydrin]", "values": [{"measurement": "TOF (turnover frequency)", "setting": "[1]", "value": "40 mol product/mol catalyst/sec"}]}, {"compound": "CC(C)(CO)C(N)C#N", "note": "(stereo not shown) [HPA, Hydroxypivaldehyde aminonitrile]", "values": [{"measurement": "concentration above which cell growth is significantly inhibited", "setting": "[4]; cells grown at pH 7", "value": "above 5 mM"}, {"measurement": "concentration above which growth was inhibited", "setting": "[4]; cells grown at pH 8", "value": "above 0.1 mM"}, {"measurement": "growth rates retarded", "setting": "[4]; in the presence of up to 3.5 mM of nitrile", "value": "< 30", "unit": "%"}]}, {"compound": "N#CC(O)c1cccnc1", "note": "(stereo not shown) [3-pyridyl cyanohydrin]", "values": [{"measurement": "TOF (turnover frequency)", "setting": "[3]; [6]", "value": "18.6 mol product/mol catalyst/sec"}]}, {"compound": "3-pyridyl acetaldehyde cyanohydrin", "values": [{"measurement": "TOF (turnover frequency)", "setting": "[1]", "value": "7.2 mol product/mol catalyst/sec"}]}, {"compound": "N#CC(O)Cc1ccccc1F", "note": "(stereo not shown) [2-fluorophenyl acetaldehyde cyanohydrin]", "values": [{"measurement": "TOF (turnover frequency)", "setting": "[1]", "value": "97 mol product/mol catalyst/sec"}]}, {"compound": "N#CC(O)c1cccc(Br)c1", "note": "(stereo not shown) [3-bromomandelonitrile]", "values": [{"measurement": "TOF (turnover frequency)", "setting": "[3]; [6]", "value": "1.7 mol product/mol catalyst/sec"}]}, {"compound": "O=C(O)c1ccccc1Cl", "note": "[2-chlorobenzoic acid]", "values": [{"measurement": "activity lost upon addition to the reaction", "setting": "[2]", "value": "~40", "unit": "%"}]}, {"compound": "O=CCc1ccccc1", "note": "[phenylacetaldehyde]", "values": [{"measurement": "effect on the enzyme activity", "setting": "[5]", "value": "no effect"}]}, {"compound": "N#CC(O)Cc1ccccc1", "note": "(stereo not shown) [phenyl acetaldehyde cyanohydrin]", "values": [{"measurement": "TOF (turnover frequency)", "setting": "[1]", "value": "16 mol product/mol catalyst/sec"}]}, {"compound": "N#CC(O)c1cccc(Cl)c1", "note": "(stereo not shown) [3-chloromandelonitrile]", "values": [{"measurement": "TOF (turnover frequency)", "setting": "[3]; [6]", "value": "3.4 mol product/mol catalyst/sec"}]}, {"compound": "Cc1ccccc1C(O)C#N", "note": "(stereo not shown) [2-methylmandelonitrile]", "values": [{"measurement": "TOF (turnover frequency)", "setting": "[3]; [6]", "value": "5.1 mol product/mol catalyst/sec"}]}]}
